Source: US10774084B2, “Adenine derivatives and their use as UV-photoprotective agents” (UNIVERZITA PALACKEHO V OLOMOUCI, priority 2015, dated 2020)

How the values were obtained:
[1] = system: Normal human dermal fibroblasts (NHDF); experiment: In vitro UVA/UVB photoprotection test on NHDF (Example 9); format: cell-based
Excerpt: Normal human dermal fibroblasts (NHDF) were used as an in vitro model. Cells were isolated from tissue specimens obtained from healthy patients undergoing plastic surgery at the Department of Plastic and Aesthetic Surgery (University Hospital Olomouc). The use of skin tissue was in accordance with the Ethics Committee of the University Hospital and Faculty of Medicine and Dentistry, Palacky University, Olomouc and all patients signed written informed consent. Fibroblasts were used between the 2nd and 4th passage. For all experiments the fibroblasts were seeded onto 96-well plates at a density of 0.8×10^5 cells/ml (0.2 ml per well) of cultivation medium (DMEM supplemented with fetal calf serum (10%, v/v), penicillin ([…]) and streptomycin (100 U/ml)). Test substances included compounds number 1, 3, 9, 15 and 20. Compounds were dissolved in DMSO and then diluted in serum free medium (DMEM supplemented with penicillin ([…]) and streptomycin (100 U/ml)). After 24 h incubation was cultivation medium changed to serum free medium containing test compound or DMSO (negative control). The final applied concentrations range was 3.9-31.3 μmol/ll. As a control serum free medium supplemented with appropriate concentration of DMSO (0.5%, v/v) was used. Rosmarinic acid was used as positive control. Each test compound was in parallel applied on two 96-well plates with NHDF. After 60 minutes incubation medium with test compound was discarded, cells were washed two-times with PBS and PBS supplemented with glucose (1 mg/ml) was applied. To study UVA photoprotection, a plate was exposed to a cytotoxic dose of UVA radiation (7.5 J/cm^2) using a solar simulator SOL 500 (Dr. Hoenle Technology, Germany) equipped with a H1 filter transmitting wavelengths of 320-400 nm. To study UVB photoprotection, a plate was exposed to a cytotoxic dose of UVB radiation (150 mJ/cm^2) using the solar simulator equipped with a H2 filter transmitting wavelengths of 295-320 nm. Intensity of UVA or UVB radiation was evaluated before each irradiation by UVA- or UVB-meter. Control (non-irradiated) plates were for the period of irradiation incubated in dark. After UVA or UVB exposure PBS with glucose was discarded and serum free medium was applied. After 24 hours (37° C., 5% CO2) cell damage was evaluated by neutral red (NR) incorporation into viable cells. Medium was discarded and NR solution (0.03% w/v, PBS) was applied. After 60 minutes NR solution was discarded, cells were fixed with a mixture of formaldehyde (0.5%, v/v) and CaCl2 (1%, m/v) in ratio 1:1 and then NR was dissolved in methanol (50%, v/v) with acetic acid (1%, v/v). After 5 minutes of intensive shaking absorbance was measured at 540 nm. Experiments were performed in four independent repetitions with use of cells from four donors to minimize individual sensitivity of donor cells. Photoprotective effect was evaluated by comparison of experimental data (absorbance) of test compounds with a positive control and a negative control (according to the following equation:
[formula] • As . . . absorbance of sample (cells pre-incubated with test compounds in serum free medium and irradiated) • Anc . . . absorbance of negative control (cells pre-incubated with s DMSO in serum free medium and non-irradiated=incubated in dark) • Apc . . . absorbance of positive control (cells pre-incubated with s DMSO in serum free medium and irradiated)

HaCaT = experiment: In vitro phototoxicity test (neutral red) on HaCaT; format: cell-based, human
Protocol: Spontaneously Immortalized Aneuploid Human Keratinocyte Cell Line (HaCaT) was bought from CLS (Eppeheim, Germany) and used as an in vitro model. For all experiments the keratinocytes were seeded onto 96-well plates at a density of 1.6×10^5 cells/ml (0.2 ml per well) of growth medium (DMEM supplemented with fetal bovine serum (10%), penicillin ([…]) and streptomycin (100 U/ml)).
Test substances included compounds number 3, 9, 15 and 20. Compounds were dissolved in DMSO and then diluted in serum free medium (DMEM supplemented penicillin (100 mg/ml) and streptomycin (100 U/ml)). After 24 h incubation was growth medium changed to serum free medium containing test compound or DMSO (negative control). The final applied concentrations range was 3.9-125 μmol/l. As a control, serum free medium supplemented with appropriate concentration of DMSO (0.5%, v/v) was used. In parallel with test compound, chlorpromazine (CPZ; 0.8-50 μmol/l) was used as a known phototoxic compound. The test compound was in parallel applied on two 96-well plates with HaCaT. After 60 minutes incubation with test compound medium was discarded, cells were washed two-times with PBS and PBS supplemented with glucose (1 mg/ml) was applied. A plate was then exposed to a non-cytotoxic dose of UVA radiation (5.0 J/cm2) using a solar simulator SOL 500 (Dr. Hoenle Technology, Germany) equipped with a H1 filter transmitting wavelengths of 320-400 nm. Intensity of UVA radiation was evaluated before each irradiation by UVA-meter. A control (non-irradiated) plate was for the period of irradiation incubated in dark. After UVA exposure PBS with glucose was discarded and serum free medium was applied. After 24 hours (37° C., 5% CO2) cell damage was evaluated by neutral red (NR) incorporation into viable cells. Medium was discarded and NR solution (0.03% w/v, PBS) was applied. After 60 minutes NR solution was discarded, cells were fixed with a mixture of formaldehyde (0.5%, v/v) and CaCl2 (1%, m/v) in ratio 1:1 and then NR was dissolved in methanol (50%, v/v) with acetic acid (1%, v/v). After 5 minutes of intensive shaking absorbance was measured at 540 nm. Experiments were performed in four independent repetition with use of cells from four donors to minimize individual sensitivity of donor cells. Phototoxic effect was evaluated as % of viability of control cells that was calculated from experimental data (absorbance) according to the following equation: […]
AS . . . absorbance of sample (cells pre-incubated with test compound in serum free medium and irradiated)
AC . . . absorbance of control (cells pre-incubated with DMSO in serum free medium and irradiated)
AB . . . absorbance of background (extraction solution)

| SMILES | Protection (%) ([1]; UVA 7.5 J/cm^2, 3.9 μmol/l) | Protection (%) ([1]; UVA 7.5 J/cm^2, 7.8 μmol/l) | Protection (%) ([1]; UVA 7.5 J/cm^2, 15.6 μmol/l) | Protection (%) ([1]; UVA 7.5 J/cm^2, 31.3 μmol/l) | Protection (%) ([1]; UVB 150 mJ/cm^2, 3.9 μmol/l) | Protection (%) ([1]; UVB 150 mJ/cm^2, 7.8 μmol/l) | Protection (%) ([1]; UVB 150 mJ/cm^2, 15.6 μmol/l) | Protection (%) ([1]; UVB 150 mJ/cm^2, 31.3 μmol/l) | HaCaT viability (HaCaT; +UVA 5.0 J/cm2, 3.9 μmol/l) [% control] | HaCaT viability (HaCaT; +UVA 5.0 J/cm2, 7.8 μmol/l) [% control] | HaCaT viability (HaCaT; +UVA 5.0 J/cm2, 15.6 μmol/l) [% control] | HaCaT viability (HaCaT; +UVA 5.0 J/cm2, 31.3 μmol/l) [% control] | HaCaT viability (HaCaT; +UVA 5.0 J/cm2, 62.5 μmol/l) [% control] | HaCaT viability (HaCaT; +UVA 5.0 J/cm2, 125 μmol/l) [% control] | HaCaT viability (HaCaT; −UVA, 3.9 μmol/l) [% control] | HaCaT viability (HaCaT; −UVA, 7.8 μmol/l) [% control] | HaCaT viability (HaCaT; −UVA, 15.6 μmol/l) [% control] | HaCaT viability (HaCaT; −UVA, 31.3 μmol/l) [% control] | HaCaT viability (HaCaT; −UVA, 62.5 μmol/l) [% control] | HaCaT viability (HaCaT; −UVA, 125 μmol/l) [% control] | further results |
| --- | --- | --- | --- | --- | --- | --- | --- | --- | --- | --- | --- | --- | --- | --- | --- | --- | --- | --- | --- | --- | --- |
| OCc1ccc(CNc2ncnc3c2ncn3C2CCCO2)o1 (stereo not shown) [Compound 3, 6-(5-hydroxymethylfuran-2-ylmethylamino)-9-(tetrahydrofuran-2-yl)purine] | 14.7 | 16.3 | 24.6 | 25.8 | 43.6 | 53.1 | 47.4 | 48.4 | 103.88 | 111.08 | 107.93 | 118.43 | 120.78 | 124.66 | 100.1 | 100.4 | 102.1 | 107.8 | 106.4 | 109.5 | – |
| c1csc(CNc2ncnc3c2ncn3C2CCCO2)c1 (stereo not shown) [Compound 9, 6-(thiophen-2-ylmethylamino)-9-(tetrahydrofuran-2-yl)purine] | 41.3 | 44.4 | 45.7 | 52.0 | 34.9 | 62.6 | 64.4 | 68.7 | 122.7 | 124.2 | 120.5 | 128.1 | 129.9 | 126.6 | 101 | 101.1 | 100.4 | 101.8 | 103.9 | 103.4 | – |
| Clc1nc(NCc2ccco2)c2ncn(C3CCCO3)c2n1 (stereo not shown) [Compound 15, 2-chloro-6-furfurylamino-9-(tetrahydrofuran-2-yl)purine] | 24.5 | 29.9 | 33.0 | 35.3 | 39.9 | 55.2 | 53 | 60.2 | 116.4 | 119.9 | 119.9 | 118.8 | 115.7 | 104 | 106.5 | 107.4 | 108.6 | 108.6 | 109.2 | 105 | – |
| Clc1nc(NCC2CCCO2)c2ncn(C3CCCO3)c2n1 (stereo not shown) [Compound 20, 2-chloro-6-(tetrahydrofuran-2-ylmethylamino)-9-(tetrahydrofuran-2-yl)purine] | 5.9 | 10.7 | 11.5 | 16.2 | 39.8 | 58.3 | 58.2 | 60 | 104.6 | 112.1 | 110.1 | 121.4 | 125.8 | 125.9 | 103.5 | 102.9 | 104.1 | 108.6 | 110.7 | 110.5 | – |
| CN(C)CCCN1c2ccccc2Sc2ccc(Cl)cc21 [chlorpromazine, reference compound] | – | – | – | – | – | – | – | – | – | – | – | – | – | – | – | – | – | – | – | – | viability of HaCaT cells (HaCaT; UVA+, 3.1 μmol/l): below 80 % of control; viability of HaCaT cells (HaCaT; UVA−, 25 μmol/l): below 70% |
